Results reported in PubChem BioAssay (NCI).
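48-hour exposure; five concentrations; linearly interpolated endpoints. The concentration for 50% growth inhibition is given as GI50. The concentration for full growth arrest is given as TGI.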

Columns and labels:
Assay in all cases: DTP human tumour cell line panel, 48 h
HT29 colon = tested on: HT29 colon
NCI/ADR-RES ovarian = tested on: NCI/ADR-RES ovarian
EKVX NSCLC = tested on: EKVX NSCLC
RXF 393 renal = tested on: RXF 393 renal
786-0 renal = tested on: 786-0 renal
SN12C renal = tested on: SN12C renal
SK-MEL-28 melanoma = tested on: SK-MEL-28 melanoma
K-562 leukemia = tested on: K-562 leukemia
HOP-62 NSCLC = tested on: HOP-62 NSCLC
CAKI-1 renal = tested on: CAKI-1 renal
A549 NSCLC = tested on: A549 NSCLC
SF-539 CNS = tested on: SF-539 CNS
UACC-62 melanoma = tested on: UACC-62 melanoma
BT-549 breast = tested on: BT-549 breast
SF-268 CNS = tested on: SF-268 CNS
HCC-2998 colon = tested on: HCC-2998 colon
MOLT-4 leukemia = tested on: MOLT-4 leukemia
NCI-H23 lung = tested on: NCI-H23 lung
OVCAR-5 ovarian = tested on: OVCAR-5 ovarian
LOX IMVI melanoma = tested on: LOX IMVI melanoma
SNB-19 CNS = tested on: SNB-19 CNS
HCT-15 colon = tested on: HCT-15 colon
A498 renal = tested on: A498 renal
COLO 205 colon = tested on: COLO 205 colon
OVCAR-3 ovarian = tested on: OVCAR-3 ovarian
NCI-H522 lung = tested on: NCI-H522 lung
SK-OV-3 ovarian = tested on: SK-OV-3 ovarian
SK-MEL-5 melanoma = tested on: SK-MEL-5 melanoma
U251 CNS = tested on: U251 CNS
SF-295 CNS = tested on: SF-295 CNS
IGROV1 ovarian = tested on: IGROV1 ovarian
UACC-257 melanoma = tested on: UACC-257 melanoma
DU-145 prostate = tested on: DU-145 prostate
TK-10 renal = tested on: TK-10 renal
MALME-3M melanoma = tested on: MALME-3M melanoma
OVCAR-4 ovarian = tested on: OVCAR-4 ovarian
OVCAR-8 ovarian = tested on: OVCAR-8 ovarian
MDA-MB-231 breast = tested on: MDA-MB-231 breast
MDA-MB-435 = tested on: MDA-MB-435
HL-60(TB) leukemia = tested on: HL-60(TB) leukemia
MCF7 breast = tested on: MCF7 breast
SR leukemia = tested on: SR leukemia
HOP-92 NSCLC = tested on: HOP-92 NSCLC
MDA-N = tested on: MDA-N
M14 melanoma = tested on: M14 melanoma
ACHN renal = tested on: ACHN renal
KM12 colon = tested on: KM12 colon
UO-31 renal = tested on: UO-31 renal
CCRF-CEM leukemia = tested on: CCRF-CEM leukemia
NCI-H226 lung = tested on: NCI-H226 lung
RPMI-8226 leukemia = tested on: RPMI-8226 leukemia
HS 578T breast = tested on: HS 578T breast
PC-3 prostate = tested on: PC-3 prostate
T-47D breast = tested on: T-47D breast
SNB-75 CNS = tested on: SNB-75 CNS
NCI-H460 lung = tested on: NCI-H460 lung
SW-620 colon = tested on: SW-620 colon
SK-MEL-2 melanoma = tested on: SK-MEL-2 melanoma

## CC[C@@]1(OC(=O)CN)C(=O)OCc2c1cc1n(c2=O)Cc2cc3cc4c(cc3nc2-1)OCO4
HT29 colon
  GI50: < 10 nM
NCI/ADR-RES ovarian
  GI50: < 10 nM
  TGI: 15 nM
EKVX NSCLC
  GI50: 73.5 nM
  TGI: > 100 µM
RXF 393 renal
  GI50: < 10 nM
  TGI: 192 nM
786-0 renal
  GI50: < 10 nM
  TGI: 36.7 nM
SN12C renal
  GI50: < 10 nM
  TGI: 563 nM
SK-MEL-28 melanoma
  GI50: 209 nM
  TGI: 10.8 µM
K-562 leukemia
  GI50: < 10 nM
HOP-62 NSCLC
  GI50: < 10 nM
  TGI: < 49.5 nM
CAKI-1 renal
  GI50: < 10 nM
A549 NSCLC
  GI50: < 10 nM
  TGI: 309 nM
SF-539 CNS
  GI50: < 10 nM
  TGI: < 10 nM
UACC-62 melanoma
  GI50: < 10 nM
  TGI: 105 nM
BT-549 breast
  GI50: 15.7 nM
  TGI: 552 nM
SF-268 CNS
  GI50: < 10 nM
HCC-2998 colon
  GI50: 17.1 nM
  TGI: 1380 nM
MOLT-4 leukemia
  GI50: < 10 nM
NCI-H23 lung
  GI50: < 10 nM
  TGI: < 12.8 nM
OVCAR-5 ovarian
  GI50: < 16.9 nM
  TGI: 232 nM
LOX IMVI melanoma
  GI50: < 10 nM
  TGI: 119 nM
SNB-19 CNS
  GI50: < 10 nM
  TGI: 92.8 µM
HCT-15 colon
  GI50: 29.1 nM
  TGI: > 100 µM
A498 renal
  GI50: < 10 nM
  TGI: 126 nM
COLO 205 colon
  GI50: 127 nM
  TGI: 1530 nM
OVCAR-3 ovarian
  GI50: < 23.9 nM
  TGI: 412 nM
NCI-H522 lung
  GI50: < 10 nM
  TGI: 246 nM
SK-OV-3 ovarian
  GI50: < 10 nM
  TGI: 73.6 nM
SK-MEL-5 melanoma
  GI50: < 10 nM
  TGI: 134 nM
U251 CNS
  GI50: < 10 nM
  TGI: 202 nM
SF-295 CNS
  GI50: < 10 nM
  TGI: < 10 nM
IGROV1 ovarian
  GI50: < 14.5 nM
  TGI: 815 nM
UACC-257 melanoma
  GI50: < 23.4 nM
  TGI: 417 nM
DU-145 prostate
  GI50: < 10 nM
  TGI: < 12 nM
TK-10 renal
  GI50: 108 nM
  TGI: 9.21 µM
MALME-3M melanoma
  GI50: < 10 nM
  TGI: 459 nM
OVCAR-4 ovarian
  GI50: 98.8 nM
  TGI: 826 nM
OVCAR-8 ovarian
  GI50: < 10 nM
  TGI: 130 nM
MDA-MB-231 breast
  GI50: 787 nM
  TGI: > 23.7 µM
MDA-MB-435
  GI50: < 13.1 nM
  TGI: 838 nM
HL-60(TB) leukemia
  GI50: < 10 nM
MCF7 breast
  GI50: < 10 nM
  TGI: > 100 µM
SR leukemia
  GI50: < 10 nM
HOP-92 NSCLC
  GI50: < 10 nM
  TGI: 404 nM
MDA-N
  GI50: < 10 nM
  TGI: 2270 nM
M14 melanoma
  GI50: < 10 nM
  TGI: 43.9 nM
ACHN renal
  GI50: < 10 nM
  TGI: < 10 nM
KM12 colon
  GI50: 34.6 nM
  TGI: 296 nM
UO-31 renal
  GI50: < 10 nM
  TGI: 111 nM
CCRF-CEM leukemia
  GI50: < 10 nM
NCI-H226 lung
  GI50: < 10 nM
  TGI: 121 nM
RPMI-8226 leukemia
  GI50: < 10.4 nM
  TGI: 582 nM
HS 578T breast
  GI50: 399 nM
  TGI: > 100 µM
PC-3 prostate
  GI50: 27.5 nM
  TGI: > 100 µM
T-47D breast
  GI50: < 10 nM
  TGI: > 100 µM
SNB-75 CNS
  GI50: < 10 nM
NCI-H460 lung
  GI50: < 10 nM
  TGI: 23.8 nM
SW-620 colon
  GI50: < 10 nM
SK-MEL-2 melanoma
  GI50: 105 nM
  TGI: 438 nM
